Reference: ChEMBL document CHEMBL1156718, “Synthesis of novel aminoquinonoid analogues of diospyrin and evaluation of their inhibitory activity against murine and human cancer cells” (Eur J Med Chem, 2008)
Active and inactive are the calls of the source. The calls are words filed in the database; no cut-off is given here.

Tests used:
PBMC [1] = experiment: Cytotoxicity against human PBMC cells after 24 hrs by MTT assay; format: cell-based
Ehrlich [2] = experiment: Antitumor activity against mouse Ehrlich ascites carcinoma cells xenografted in Swiss A mouse assessed as inhibition of tumor growth at 1 mg/kg, ip administered five doses in alternate days measured after 16 days; format: functional; parameters: unit not given here; details: route intraperitoneal
Ehrlich [3] = experiment: Cytotoxicity against mouse Ehrlich ascites carcinoma cells after 24 hrs by MTT assay; format: functional, cell-based
Ehrlich [4] = experiment: Antitumor activity against mouse Ehrlich ascites carcinoma cells xenografted in Swiss A mouse assessed as restoration of lymphocyte infiltration and sinusoid dilation at 1 mg/kg, ip administered five doses in alternate days measured after 16 days by histopathological study relative to untreated control; format: functional, organism-based; parameters: dose 1 mg/kg
[5] = Toxicity in single ip dosed Swiss A mouse; format: organism-based; details: in vivo
PBMC [6] = experiment: Selectivity ratio of IC50 for mouse Ehrlich ascites carcinoma to IC50 for human PBMC cells
Ehrlich [7] = experiment: Induction of apoptosis in mouse Ehrlich ascites carcinoma cells assessed as intracellular ROS generation at 0.4 uM after 1 hr by measuring increase in fluorescent intensity relative to control; format: functional
PBMC [8] = experiment: Selectivity ratio of IC50 for human Hep2 cells to IC50 for human PBMC cells
A-375 = experiment: Cytotoxicity against human A375 cells after 24 hrs by MTT assay; format: functional, cell-based; details: A-375, 24 h
Mus musculus [9] = experiment: Toxicity in Swiss A mouse xenografted with mouse Ehrlich ascites carcinoma cells assessed as food and water intake at 1 mg/kg, ip administered five doses in alternate days measured after 16 days; format: organism-based; parameters: dose 1 mg/kg, route intraperitoneal; details: in vivo, 384 h
Ehrlich [10] = experiment: Antitumor activity against mouse Ehrlich ascites carcinoma cells xenografted in Swiss A mouse assessed as increase in survival time at 1 mg/kg, ip administered five doses in alternate days; format: functional; parameters: unit not given here; details: route intraperitoneal
Mus musculus [11] = experiment: Effect on serum LDH activity in Swiss A mouse xenografted with mouse Ehrlich ascites carcinoma cells assessed as LDH unit at 1 mg/kg, ip administered five doses in alternate days measured after 16 days relative to control; format: functional; parameters: unit not given here; details: route intraperitoneal
Ehrlich [12] = experiment: Induction of apoptosis in mouse Ehrlich ascites carcinoma cells assessed as intracellular ROS generation at 0.4 uM after 1 hr by measuring increase in fluorescent intensity relative to control in presence of N-acetyl L-cysteine; format: functional, cell-based
Ehrlich [13] = experiment: Antitumor activity against mouse Ehrlich ascites carcinoma cells xenografted in Swiss A mouse assessed as increase in life span at 1 mg/kg, ip administered five doses in alternate days relative to control; format: functional; details: route intraperitoneal
PBMC [14] = experiment: Selectivity ratio of IC50 for human A375 cells to IC50 for human PBMC cells
HEp-2 = experiment: Cytotoxicity against human Hep2 cells after 24 hrs by MTT assay; format: functional, cell-based; details: HEp-2, 24 h
Mus musculus [15] = experiment: Effect on alkaline phosphatase activity in Swiss A mouse xenografted with mouse Ehrlich ascites carcinoma cells assessed as umole of PNPP hydrolysed per minute per decilitre of serum at 1 mg/kg, ip administered five doses in alternate days measured after 16 days relative to control; format: functional; parameters: unit: umol/min/dL; details: route intraperitoneal
K562 = experiment: Cytotoxicity against human K562 cells by MTT assay; format: functional, cell-based
HL-60 = experiment: Cytotoxicity against human HL60 cells by MTT assay; format: functional, cell-based
MCF7 = experiment: Cytotoxicity against human MCF7 cells by MTT assay; format: functional, cell-based
A-431 = experiment: Cytotoxicity against human A431 cells by MTT assay; format: functional, cell-based
Ehrlich [16] = experiment: Induction of apoptosis in mouse Ehrlich ascites carcinoma cells assessed as intracellular ROS generation after 1 hr; format: functional, cell-based

SMILES	IC50 (PBMC [1]) [µM]	Activity (Ehrlich [2])	IC50 (Ehrlich [3]) [µM]	LD50 [5] [mg/kg]	IC50 (A-375) [µM]	Activity (Ehrlich [10])	Activity (Mus musculus [11])	Activity (Ehrlich [13]) [%]	IC50 (HEp-2) [µM]	Activity (Mus musculus [15])	IC50 (K562) [µM]	IC50 (HL-60) [µM]	IC50 (MCF7) [µM]	IC50 (A-431) [µM]	Activity (Ehrlich [16])	also measured
COc1cc(C)cc2c1C(=O)C=C(c1c(C)cc3c(c1OC)C(=O)C(NC(C)=O)=CC3=O)C2=O	86.5	3.3	0.06	> 60	0.06	35.7	26.3	93	0.92	5.5						Activity (Ehrlich [4]): Active; Selectivity ratio (PBMC [6]): 100; Activity (Ehrlich [7]): 9; Selectivity ratio (PBMC [8]): 100; Activity (Mus musculus [9]): Non-toxic; Activity (Ehrlich [12]): inactive; Selectivity ratio (PBMC [14]): 100
COc1cc(C)cc2c1C(=O)C=C(c1c(C)cc3c(c1OC)C(=O)C=CC3=O)C2=O		2.9		45		29.8	25.5	57		4.9	> 100	64.1	46.4	28.2		
CCOc1cc(C)cc2c1C(=O)C=C(c1c(C)cc3c(c1OCC)C(=O)C=CC3=O)C2=O											40.2	30.1	18.9	15.9		
CCOC(=O)CNC1=CC(=O)c2cc(C)c(C3=CC(=O)c4c(OC)cc(C)cc4C3=O)c(OC)c2C1=O	96.2	2.3	0.09		0.57	34.9	24.6	81	0.86	5.9					Dose-dependent effect	Activity (Ehrlich [7]): 9; Activity (Ehrlich [12]): inactive
COc1cc(C)cc2c1C(=O)C=C(c1c(C)cc3c(c1OC)C(=O)C(Nc1ccc(Cl)cc1)=CC3=O)C2=O	44.9	2.7	0.25		0.63	34.3	25.5	69	0.65	6.4					Dose-dependent effect	
COc1cc(C)cc2c1C(=O)C(N)=C(c1c(C)cc3c(c1OC)C(=O)C(N)=CC3=O)C2=O	40.6	3.9	0.37		1.93	30	37.5	62	2.34	4.9						
Cc1cc(O)c2c(c1)C(=O)C(c1c(C)cc3c(c1O)C(=O)C=CC3=O)=CC2=O [DIOSPYRIN]		4.3		25		23.2	16.3	36		3.7	> 100	> 100	74.8	65.3		
COc1cc(C)cc2c1C(=O)C=C(c1c(C)cc3c(c1OC)C(=O)C(N)=CC3=O)C2=O	> 100	3.4	0.35		3.24	31.5	34.7	72	3.51	4.4					Dose-dependent effect	
COc1cc(C)cc2c1C(=O)C=C(c1c(C)cc3c(c1OC)C(=O)C(NCc1ccccc1)=CC3=O)C2=O	> 100	3	1.41		0.55	28.4	31.8	47	2.61	3.1					Dose-dependent effect	
COc1cc(C)cc2c1C(=O)C=C(c1c(C)cc3c(c1OC)C(=O)C(Nc1ccc4ccccc4c1)=CC3=O)C2=O	73.8	2.9	0.24		0.08	34	23.5	67	2.04	5.4					Dose-dependent effect	
